Data taken from patent publication US10870638B2, “Pyridazinone compound or its salt, and herbicide containing it” (ISHIHARA SANGYO KAISHA, LTD., priority 2016, dated 2020).

Legend:
Assay in all cases: Test Example 1: foliar treatment, growth inhibition rate on 14th day
Assay type in all cases: in vivo
Settings in all cases: active ingredient amount 31 g/ha, 14th day after application
[1] = test system: wild oat (Avena fatua L.)
Text: (§1) Upland field soil was put into a 1/300,000 hectare pot, and seeds of various plants were sown. When the respective plants reached predetermined leaf stage ((1) barnyardgrass (Echinochloa crus-[…].): 0.5 to 2.9 leaf stage, (2) crabgrass (Digitaria sanquinalis L.): 0.5 to 3.0 leaf stage, (3) green foxtail (Setaria viridis L.): 0.5 to 3.2 leaf stage, (4) wild oat (Avena fatua L.): 0.4 to 1.2 leaf stage, (5) italian ryegrass (Lolium multiflorum Lam.): 0.4 to 2.0 leaf stage, (6) redroot pigweed (Amaranthus retroflexus L.): cotyledon stage to 2.2 leaf stage, (7) rice (Oryza sativa L.): 0.2 to 2.7 leaf stage, (8) corn (Zea mays L.): 1.7 to 3.6 leaf stage, (9) wheat (Triticum aestivum L.): 1.3 to 2.3 leaf stage, (10) soybean (Glycine max Merr.); primary leaf stage), wettable powders or emulsifiable concentrates of the compounds of the present invention prepared in accordance with a conventional preparation method, were weighed so as to achieve the prescribed active ingredient amounts, and diluted with water in an amount corresponding to 1,000 liters per 1 hectare (containing 0.1 vol % of an agricultural spreader (surfactant WK manufactured by MARUWA BIOCHEMICAL Co., Ltd.)), and the spray solutions thus prepared were applied for foliar treatment by a small sprayer. On the 14th day after the application, the state of growth of the respective plants was visually observed, and the herbicidal effect was evaluated by a growth inhibition rate (%) of 0 (equivalent to the non-treated area) to 100 (complete kill).

rice (Oryza sativa L.) = test system: rice (Oryza sativa L.)
Text: as §1

[2] = test system: soybean (Glycine max Merr.)
Text: as §1

[3] = test system: green foxtail (Setaria viridis L.)
Text: as §1

corn (Zea mays L.) = test system: corn (Zea mays L.)
Text: as §1

[4] = test system: italian ryegrass (Lolium multiflorum Lam.)
Text: as §1

[5] = test system: redroot pigweed (Amaranthus retroflexus L.)
Text: as §1

[6] = test system: wheat (Triticum aestivum L.)
Text: as §1

[7] = test system: barnyardgrass (Echinochloa crus-qalli L.)
Text: as §1

[8] = test system: crabgrass (Digitaria sanquinalis L.)
Text: as §1

| SMILES | Growth inhibition rate (%) Wild oat [1] | Growth inhibition rate (%) Rice (rice (Oryza sativa L.)) | Growth inhibition rate (%) Soybean [2] | Growth inhibition rate (%) Green foxtail [3] | Growth inhibition rate (%) Corn (corn (Zea mays L.)) | Growth inhibition rate (%) Italian ryegrass [4] | Growth inhibition rate (%) Redroot pigweed [5] | Growth inhibition rate (%) Wheat [6] | Growth inhibition rate (%) Barnyardgrass [7] | Growth inhibition rate (%) Crabgrass [8] |
| --- | --- | --- | --- | --- | --- | --- | --- | --- | --- | --- |
| Cc1ccc(Nc2ncc(C(F)(F)F)cc2Cl)cc1-c1c(O)c(C)nn(C)c1=O [1-144] | 10% | 20% | 20% | 60% | 10% | 0% | 0% | 0% | 30% | 10% |
| CC(=O)Oc1c(C)nn(C)c(=O)c1-c1cc(N(C)c2ncc(C(F)(F)F)cc2Cl)ccc1C [1-145] | 40% | 0% | 35% | 70% | 40% | 20% | 0% | 50% | 93% | 90% |
| CC(=O)Oc1c(C)nn(C)c(=O)c1-c1cc(Nc2ncc(C(F)(F)F)cc2Cl)ccc1C [1-146] | 88% | 0% | 10% | 93% | 75% | 70% | 0% | 85% | 98% | 90% |
| COC(=O)OC(C)Oc1c(C)nn(C)c(=O)c1-c1cc(Oc2ncc(C(F)(F)F)cc2Cl)c(C)cc1C (centres unmarked) [1-151] | 95% | 65% | 0% | 95% | 35% | 83% | 30% | 10% | 99% | 99% |
| CC(=O)Cn1ncc(O)c(-c2cc(Oc3ncc(C(F)(F)F)cc3Cl)ccc2C)c1=O [1-169] | 90% | 10% | 0% | 99% | 98% | 90% | 20% | 0% | 90% | 95% |
| Cc1ccc(Oc2ncc(C#N)cc2Cl)cc1-c1c(O)c(C)nn(C)c1=O [Compound 2-2] | 10% | 0% | 0% | 75% | 10% | 10% | 20% | 0% | 70% | 70% |
| CC(=O)Oc1c(C)nn(C)c(=O)c1-c1cc(Oc2ncc(C#N)cc2Cl)ccc1C [Compound 2-60] | 50% | 50% | 0% | 75% | 50% | 40% | 0% | 0% | 88% | 85% |
| Cc1ccc(Oc2ncc3cc(Br)ccc3n2)cc1-c1c(O)c(C)nn(C)c1=O [Compound 2-90] | 0% | 0% | 0% | 75% | 0% | 10% | 0% | 20% | 90% | 0% |
| Cc1ccc(Oc2ncc(Cl)cc2C(F)(F)F)cc1-c1c(O)c(C)nn(C)c1=O [Compound 2-92] | 50% | 0% | 0% | 10% | 80% | 78% | 20% | 0% | 80% | 30% |
| Cc1ccc(Oc2ccc3cc(Br)ccc3n2)cc1-c1c(O)c(C)nn(C)c1=O [Compound 2-94] | 40% | 0% | 0% | 100% | 0% | 20% | 0% | 0% | 100% | 0% |
| Cc1ccc(Oc2nc3ccccc3o2)cc1-c1c(O)c(C)nn(C)c1=O [Compound 2-104] | 35% | 10% | 10% | 70% | 10% | 30% | 10% | 20% | 85% | 60% |
